This note sets out measurements from US11286247B2, “Acryloyl-containing nuclear transport regulators and uses thereof” (WIGEN BIOMEDICINE TECHNOLOGY (SHANGHAI) CO., LTD., priority 2019, dated 2022).

Data set [1] can be described thus: In vivo pharmacokinetic analysis. The following applies: ICR, mouse; mice, 5 mg/kg, oral gavage in 0.5% CMC, plasma. The procedure:
A group of 9 ICR mice received 5 mg/kg of compound in 0.5% CMC by oral gavage. Blood was taken before treatment and at 5 min, 30 min, 1, 2, 4, 8, 12 and 24 h after treatment. 80 μL of whole blood was sampled (n=3 at each time point) via retro-orbital bleeds or cardiac puncture. The blood sample was collected into EDTA tubes and plasma were obtained by centrifugation at 1500-1600 rpm for 10 min at 4° C. After centrifugation, plasma sample was transferred to a new tube and stored at −60 to −90° C. for future analysis. Plasma concentration of (compounds was quantified by a method based on liquid chromatography coupled to tandem mass-spectrometric detections (LC/MS/MS). Noncompartmental pharmacokinetics parameters were calculated.

The next data set concerns the target T1, CRM1 (Homo sapiens, UniProt O14980).
T1 construct: The nuclear localization of Rev protein depends on CRM1; endogenous in cells; host or cells: U2OS cells stably or transiently expressing Rev-GFP (reporter cargo)
Nature of the data set: Rev-GFP nuclear export assay. The class given is cell-based. The following applies: U2OS cells expressing Rev-GFP, 1 hour incubation, nuclear retention of Rev-GFP. As to the method:
The Rev protein from HIV contains nuclear export sequence (NES) at its C terminus and nuclear localization sequence (NLS) at its N-terminus. The nuclear localization of Rev protein depends on CRM1. U2OS cells expressing Rev protein fused with GFP (Rev-GFP) were plated in black 384 plates with clear bottom one day prior to treatment. Compounds were serially diluted 2-fold from 40 μM with DMEM in 384 plates, and then incubated with U2OS cells for an hour. Cells were fixed with 3.7% formaldehyde afterwards and nuclei were stained with Hoechst33258. The nuclear retention of Rev-GFP was examined, and IC50 was calculated.

Data set [2] deals with MDA-MB-231 cells (breast cancer cells). The data set can be described thus: Cancer cell proliferation assay, MDA-MB-231. The class given is cell-based. The following applies: Homo sapiens, MDA-MB-231, 72 h; three days incubation, absorbance 570 nm; read-out: IC50 (μM) MDA-MB-231. As to the method: (§1) BxPC-3 cells (pancreatic cancer) and MDA-MB-231 cells (breast cancer cells) were harvested from exponential phase cultures and seeded in 96-well plates at a cell density of 2×10^4 per well. After overnight attachment, compounds including positive controls were applied to cells at five concentrations and incubated for three days. During the last four hours of incubation, 20 μL of 5 mg/mL […] was added followed by the further addition of 100 μL DMSO. The plates were subsequently shook for 10 minutes to dissolve insoluble purple formazan. Absorbance (A) at a wavelength of 570 nm was quantified. Percentage of inhibition was used for the calculation of IC50 based on the bliss method.

Data set [3] concerns BxPC-3 cells (pancreatic cancer). The data set can be described thus: Cancer cell proliferation assay, BxPC-3. The class given is cell-based. The settings on record: Homo sapiens, BXPC-3, 72 h; three days incubation, absorbance 570 nm; read-out: IC50 (μM) BxPC-3. As to the method: as §1

T1 sequence (O14980 whole entry): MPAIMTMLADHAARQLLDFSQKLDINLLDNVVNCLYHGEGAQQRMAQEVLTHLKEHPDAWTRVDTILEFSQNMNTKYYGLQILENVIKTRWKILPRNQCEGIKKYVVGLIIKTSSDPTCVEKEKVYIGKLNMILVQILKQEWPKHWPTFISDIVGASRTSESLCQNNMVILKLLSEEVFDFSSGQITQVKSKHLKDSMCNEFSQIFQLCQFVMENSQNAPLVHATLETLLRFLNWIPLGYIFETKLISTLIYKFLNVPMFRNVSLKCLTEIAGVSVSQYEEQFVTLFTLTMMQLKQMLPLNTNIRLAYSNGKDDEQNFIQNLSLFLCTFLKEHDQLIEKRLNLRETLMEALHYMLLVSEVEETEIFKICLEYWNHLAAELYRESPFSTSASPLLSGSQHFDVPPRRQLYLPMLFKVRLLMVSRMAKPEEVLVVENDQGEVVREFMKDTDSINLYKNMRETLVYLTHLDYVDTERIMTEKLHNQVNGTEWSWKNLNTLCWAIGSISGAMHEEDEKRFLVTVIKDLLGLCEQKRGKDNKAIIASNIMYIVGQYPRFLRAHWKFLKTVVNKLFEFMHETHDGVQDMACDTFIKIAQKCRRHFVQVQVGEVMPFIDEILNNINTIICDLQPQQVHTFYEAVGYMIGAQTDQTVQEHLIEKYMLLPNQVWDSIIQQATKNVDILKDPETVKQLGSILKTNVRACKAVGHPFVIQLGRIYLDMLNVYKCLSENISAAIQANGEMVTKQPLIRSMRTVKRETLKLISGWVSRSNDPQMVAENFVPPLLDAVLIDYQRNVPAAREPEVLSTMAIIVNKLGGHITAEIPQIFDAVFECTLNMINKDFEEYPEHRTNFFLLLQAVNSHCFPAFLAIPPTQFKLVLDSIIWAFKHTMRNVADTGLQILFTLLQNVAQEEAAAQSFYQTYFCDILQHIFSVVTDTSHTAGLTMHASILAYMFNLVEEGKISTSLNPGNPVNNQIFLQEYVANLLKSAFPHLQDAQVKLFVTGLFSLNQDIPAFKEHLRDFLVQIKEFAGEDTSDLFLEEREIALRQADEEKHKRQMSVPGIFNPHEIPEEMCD

As a reminder, the AUC(0-t) is the area under the concentration-time curve up to a stated or last time point. A lower AUC(0-t) goes with less exposure. As usually defined, the Cmax is the highest concentration seen after dosing. A word on the MRT: it is the average time that molecules of a dose stay in the body. As usually defined, the Tmax is the time at which the peak concentration occurs. In general, half-life refers to how long it takes for the measured level to halve. For `O=C(/C=C\n1cnc(-c2cc(C(F)(F)F)cc(C(F)(F)F)c2)n1)NN1CCCCC1=O` [Compound 3, (Z)-3-(3-(3,5-bis(trifluoromethyl)phenyl)-1H-1,2,4-triazol-1-yl)-N-(2-oxopiperidin-1-yl)acrylamide], in data set [1], the AUC(0-t) is 5810 ng·h/mL, the peak level (Cmax) was 499 ng/mL, the mean residence time MRT is 7.86 h and the Tmax turned out to be 1 h. For the same compound, the half-life in data set [1] is 3.31 h.

The IC50 is the point on the concentration scale where inhibition reaches its midpoint. As to `O=C(/C=C\n1cnc(-c2cc(C(F)(F)F)cc(C(F)(F)F)c2)n1)NN1CCCCCC1=O` [Compound 4, (Z)-3-(3-(3,5-bis(trifluoromethyl)phenyl)-1H-1,2,4-triazol-1-yl)-N-(2-oxoazepan-1-yl)acrylamide], the IC50 was below 1000 nM at CRM1, 0.034 µM in data set [2] and 0.238 µM in data set [3].

For the compound `CCC1=C(C)CN(NC(=O)/C=C\n2cnc(-c3cc(C(F)(F)F)cc(C(F)(F)F)c3)n2)C1=O` [Compound 6, (Z)-3-(3-(3,5-bis(trifluoromethyl)phenyl)-1H-1,2,4-triazol-1-yl)-N-(3-ethyl-4-methyl-2-oxo-2,5-dihydro-1H-pyrrol-1-yl)acrylamide], the IC50 against CRM1 was below 1000 nM; in data set [2], 0.487 µM; in data set [3], 0.471 µM.

Take `CC1CCN(NC(=O)/C=C\n2cnc(-c3cc(C(F)(F)F)cc(C(F)(F)F)c3)n2)C1=O` (stereo not drawn) [Compound 9, (Z)-3-(3-(3,5-bis(trifluoromethyl)phenyl)-1H-1,2,4-triazol-1-yl)-N-(3-methyl-2-oxopyrrolidin-1-yl)acrylamide]: the IC50 against CRM1 was below 1000 nM; in data set [2], 0.504 µM; in data set [3], 0.334 µM.

As to `O=C(/C=C\n1cnc(-c2cc(C(F)(F)F)cc(C(F)(F)F)c2)n1)NN1CC[C@H](O)C1=O` [Compound 10, (S,Z)-3-(3-(3,5-bis(trifluoromethyl)phenyl)-1H-1,2,4-triazol-1-yl)-N-(3-hydroxy-2-oxopyrrolidin-1-yl)acrylamide], the IC50 against CRM1 is 1000 to 10000 nM; in data set [2], 0.519 µM; in data set [3] it was 0.527 µM.

For the compound `O=C(/C=C\n1cnc(-c2cc(C(F)(F)F)cc(C(F)(F)F)c2)n1)NN1CC(O)CC1=O` (stereo not drawn) [Compound 15, (Z)-3-(3-(3,5-bis(trifluoromethyl)phenyl)-1H-1,2,4-triazol-1-yl)-N-(4-hydroxy-2-oxopyrrolidin-1-yl)acrylamide], the IC50 in data set [2] was 1.23 µM; in data set [3] it was 0.352 µM.

Regarding `O=C(/C=C\n1cnc(-c2cc(C(F)(F)F)cc(C(F)(F)F)c2)n1)NN1CCC2(CC2)C1=O` [Compound 18, (Z)-3-(3-(3,5-bis(trifluoromethyl)phenyl)-1H-1,2,4-triazol-1-yl)-N-(4-oxo-5-azaspiro[2.4]heptan-5-yl)acrylamide], in data set [1], the AUC(0-t) is 3100 ng·h/mL, the Cmax came out at 320 ng/mL, the MRT was found to be 6.17 h and the time of peak concentration (Tmax) is 0.5 h. For the same compound, the half-life in data set [1] is 3.12 h.

As to `O=C(/C=C\n1cnc(-c2cc(C(F)(F)F)cc(C(F)(F)F)c2)n1)NN1CC2CCCCC2C1=O` (stereo not drawn) [Compound 28, (Z)-3-(3-(3,5-bis(trifluoromethyl)phenyl)-1H-1,2,4-triazol-1-yl)-N-(1-oxooctahydro-2H-isoindol-2-yl)acrylamide], the IC50 was 1000 to 10000 nM against CRM1, 0.24 µM in data set [2] and 0.769 µM in data set [3].

For `O=C(/C=C\n1cnc(-c2cc(C(F)(F)F)cc(C(F)(F)F)c2)n1)NN1C(=O)[C@H]2C=C[C@@H]1C2` [Compound 30, (Z)-3-(3-(3,5-bis(trifluoromethyl)phenyl)-1H-1,2,4-triazol-1-yl)-N-((1S,4R)-3-oxo-2-azabicyclo[2.2.1]hept-5-en-2-yl)acrylamide], the IC50 is below 1000 nM at CRM1, 0.515 µM in data set [2] and 0.392 µM in data set [3].

Regarding `O=C(/C=C\n1cnc(-c2cc(C(F)(F)F)cc(C(F)(F)F)c2)n1)NN1C(=O)[C@H]2CC[C@@H]1C2` [Compound 32, (Z)-3-(3-(3,5-bis(trifluoromethyl)phenyl)-1H-1,2,4-triazol-1-yl)-N-((1R,4S)-3-oxo-2-azabicyclo[2.2.1]heptan-2-yl)acrylamide], the results for the concentration for half-maximal inhibition (IC50) (against CRM1; in data set [2]; in data set [3]) were below 1000 nM, 0.277 µM and 0.134 µM, respectively.

For `O=C(/C=C\n1cnc(-c2cc(C(F)(F)F)cc(C(F)(F)F)c2)n1)Nn1ccccc1=O` [Compound 56, (Z)-3-(3-(3,5-bis(trifluoromethyl)phenyl)-1H-1,2,4-triazol-1-yl)-N-(2-oxopyridin-1(2H)-yl)acrylamide], the results for the IC50 (against CRM1; in data set [2]; in data set [3]) were below 1000 nM, 0.382 µM and 0.449 µM, respectively.

Take `CC(C)N1C(=O)CCN1C(=O)/C=C\n1cnc(-c2cc(C(F)(F)F)cc(C(F)(F)F)c2)n1` [Compound 65, (Z)-1-(3-(3-(3,5-bis(trifluoromethyl)phenyl)-1H-1,2,4-triazol-1-yl)acryloyl)-2-isopropylpyrazolidin-3-one]: the IC50 at CRM1 was below 1000 nM; in data set [2], 0.055 µM; in data set [3] it was 0.168 µM.

Turning to `O=C(/C=C\n1cnc(-c2cc(C(F)(F)F)cc(C(F)(F)F)c2)n1)N1CCC(=O)N1Cc1ccccc1` [Compound 67, (Z)-2-benzyl-1-(3-(3-(3,5-bis(trifluoromethyl)phenyl)-1H-1,2,4-triazol-1-yl)acryloyl)pyrazolidin-3-one], the IC50 against CRM1 was below 1000 nM; in data set [2], 0.965 µM; in data set [3], 0.483 µM.

For `CCOC1=CC(=O)N(NC(=O)/C=C\n2cnc(-c3cc(C(F)(F)F)cc(C(F)(F)F)c3)n2)C1` [Compound 80, (Z)-3-(3-(3,5-bis(trifluoromethyl)phenyl)-1H-1,2,4-triazol-1-yl)-N-(4-ethoxy-2-oxo-2,5-dihydro-1H-pyrrol-1-yl)acrylamide], the IC50 is below 1000 nM on CRM1, 0.266 µM in data set [2] and 0.145 µM in data set [3].

`[2H]C([2H])([2H])OC1=CC(=O)N(NC(=O)/C=C\n2cnc(-c3cc(C(F)(F)F)cc(C(F)(F)F)c3)n2)C1` [Compound 82, (Z)-3-(3-(3,5-bis(trifluoromethyl)phenyl)-1H-1,2,4-triazol-1-yl)-N-(4-(methoxy-d3)-2-oxo-2,5-dihydro-1H-pyrrol-1-yl)acrylamide]: the IC50 at CRM1 is below 1000 nM; in data set [2], 0.102 µM; in data set [3] it was 0.016 µM.

Consider `O=C(/C=C\n1cnc(-c2cc(C(F)(F)F)cc(C(F)(F)F)c2)n1)NN1CC(OCC(F)(F)F)=CC1=O` [Compound 83, (Z)-3-(3-(3,5-bis(trifluoromethyl)phenyl)-1H-1,2,4-triazol-1-yl)-N-(2-oxo-4-(2,2,2-trifluoroethoxy)-2,5-dihydro-1H-pyrrol-1-yl)acrylamide], for which the IC50 against CRM1 was below 1000 nM; in data set [2], 0.214 µM; in data set [3] it was 0.344 µM.

As to `O=C(/C=C\n1cnc(-c2cc(C(F)(F)F)cc(C(F)(F)F)c2)n1)NN1CCC=CC1=O` [Compound 88, (Z)-3-(3-(3,5-bis(trifluoromethyl)phenyl)-1H-1,2,4-triazol-1-yl)-N-(6-oxo-3,6-dihydropyridin-1(2H)-yl)acrylamide], the IC50 was below 1000 nM on CRM1, 0.41 µM in data set [2] and 0.259 µM in data set [3].

On to `CC1=CC(=O)N(NC(=O)/C=C\n2cnc(-c3cc(C(F)(F)F)cc(C(F)(F)F)c3)n2)CC1` [Compound 89, (Z)-3-(3-(3,5-bis(trifluoromethyl)phenyl)-1H-1,2,4-triazol-1-yl)-N-(4-methyl-6-oxo-3,6-dihydropyridin-1(2H)-yl)acrylamide], for which the IC50 is below 1000 nM at CRM1, 0.277 µM in data set [2] and 0.184 µM in data set [3].

With `O=C(/C=C\n1cnc(-c2cc(C(F)(F)F)cc(C(F)(F)F)c2)n1)N1CCCN1c1cnccn1` [Compound 96, (Z)-3-(3-(3,5-bis(trifluoromethyl)phenyl)-1H-1,2,4-triazol-1-yl)-1-(2-(pyrazin-2-yl)pyrazolidin-1-yl)prop-2-en-1-one], the 50% inhibitory concentration (IC50) at CRM1 is below 1000 nM; in data set [2], 0.675 µM; in data set [3] it was 0.334 µM.

In the case of `O=C(/C=C\n1cnc(-c2cc(C(F)(F)F)cc(C(F)(F)F)c2)n1)N1CCCN1C(=O)C1CC1` [Compound 98, (Z)-3-(3-(3,5-bis(trifluoromethyl)phenyl)-1H-1,2,4-triazol-1-yl)-1-(2-(cyclopropanecarbonyl)pyrazolidin-1-yl)prop-2-en-1-one], the IC50 was below 1000 nM on CRM1, 0.487 µM in data set [2] and 0.302 µM in data set [3].
